Reference: US20160050959A1, “TABLET COMPRISING FRUCTOSE” (NATURALIA INGREDIENTS S.R.L., priority 2013, published 2016)

Columns and labels:
[1] = Compressibility (compression force versus tablet hardness); assay type: physicochemical; conditions: 98% fructose + 2% leucine, direct compression 12 kN
Protocol: Compressibility: the compressibility was evaluated by measuring the compression force of the compression machine used and the hardness of the tablet. With the same hardness, the formulation that requires less compression force is more compressible.

[2] = Colour change of tablets after direct compression; assay type: physicochemical; conditions: 98% fructose + 2% leucine
Protocol: The tablets were prepared by direct compression, after 15 min. mixing of the ingredients, using a Korsch XL 400 compression machine with force of 12 kN and rotation speed of 20,000 tablets/h.

[3] = studies on mice followed by clinical trials on humans; cited from earlier work
[4] = at 20° C.; cited from earlier work
[5] = Friability, evaluation by the operator; assay type: physicochemical; conditions: 98% fructose + 2% leucine
Protocol: Friability: friability is measured with the friabilimeter and relative method described in Pharmacopoeia Europea (note: in our specific case, an evaluation by the operator was performed, not a measurement).

[6] = Tablet stability tests / stability to humidity; assay type: physicochemical; conditions: tablets of 98% fructose + 2% leucine, grape versus commercial fructose
[7] = Cracking off, operator observation; assay type: physicochemical; conditions: 98% fructose + 2% leucine; operator evaluation
Protocol: Cracking off: the cracking off was evaluated directly by the machine operator by observing the tablets both during mould ejection and during the friability test. The tablets must never crack into two mirror-image parts with crack horizontal to the edge, or have visible cracks on the same edge.

[8] = listed as crystalline grape fructose

## O=C(CO)[C@@H](O)[C@H](O)[C@H](O)CO [commercial fructose, fructose]
[1]
  Compressibility: very poor
[2]
  colour change of tablet: tendency to form yellow patches

## O=C(CO)[C@@H](O)[C@H](O)[C@H](O)CO [fructose extracted from fruit, fructose]
[3]
  insulin secretion: very low

## O=C(CO)[C@@H](O)[C@H](O)[C@H](O)CO [fructose]
[4]
  solubility in water: approx. 80%

## O=C(CO)[C@@H](O)[C@H](O)[C@H](O)CO [grape fructose, fructose]
[5]
  Friability: is not friable
[6]
  stability: more stable
[6]; [8]
  stability: more resistant to the stability tests
[7]
  Cracking off: does not tend to cracking off
[1]
  Compressibility: compressed better
[1]; [8]
  Compressibility: compresses well
[2]
  colour change of tablet: did not change colour
[2]; [8]
  colour change of tablet: does not change colour
